Experimental data taken from patent US9914730B2, “Azaquinazoline inhibitors of Atypical protein Kinase C” (Ignyta, Inc., priority 2012, dated 2018).

The compounds below were run against T1, full-length human PKCι (Homo sapiens, UniProt P41743) (assay: PKCι IC50 IMAP assay, full-length PKCι at 150 μM ATP). Details: read-out: IC50 in IMAP assay against full length PKCi at 150 μM ATP.
T1 construct: Recombinant, full-length human PKCι expressed in Sf21 insect cells is also commercially available; purchased; host or cells: Sf21 insect cells
T1 sequence (P41743 1-596): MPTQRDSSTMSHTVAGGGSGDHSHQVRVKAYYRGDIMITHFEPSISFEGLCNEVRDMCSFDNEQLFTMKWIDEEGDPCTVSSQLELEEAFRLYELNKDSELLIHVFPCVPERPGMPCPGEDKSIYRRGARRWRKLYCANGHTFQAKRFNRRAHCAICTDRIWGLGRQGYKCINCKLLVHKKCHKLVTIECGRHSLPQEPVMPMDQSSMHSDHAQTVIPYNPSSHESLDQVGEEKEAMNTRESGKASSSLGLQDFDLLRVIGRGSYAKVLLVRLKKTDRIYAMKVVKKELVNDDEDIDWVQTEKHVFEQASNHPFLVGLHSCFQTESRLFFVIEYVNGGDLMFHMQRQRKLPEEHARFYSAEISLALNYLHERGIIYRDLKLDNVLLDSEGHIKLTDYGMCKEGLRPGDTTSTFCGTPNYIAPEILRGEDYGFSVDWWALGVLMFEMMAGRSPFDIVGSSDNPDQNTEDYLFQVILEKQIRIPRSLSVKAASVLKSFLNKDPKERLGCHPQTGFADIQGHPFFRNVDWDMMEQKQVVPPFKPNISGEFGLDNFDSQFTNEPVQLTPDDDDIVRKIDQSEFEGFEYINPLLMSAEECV
Assay type: biochemical
Procedure, shortened: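 Full-length hPKCι (Sf21) ~15 pM; 5FAM-peptide 100 nM; ATP 150 μM (5× KM^APP); tris pH7.5/MgCl2/EGTA/DTT/Triton, 4% DMSO; 60 min RT; IMAP stop, 2 h; FP 485/530 nm; IC50 from % inhibition curves.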

Row | IC50 [nM] | Compound
1 | 100 to 1000 | COc1cncc2nc(-c3ccnc(Nc4ccccc4)c3)nc(NC[C@H]3CCCN3)c12 [Example 431, [5-Methoxy-2-(2-phenylamino-pyridin-4-yl)-pyrido[3,4-d]pyrimidin-4-yl]-(R)-1-pyrrolidin-2-ylmethyl-amine]
2 | 1000 to 10000 | COC(=O)[C@@H]1C[C@H](NC(=O)[C@@H]2C[C@H](Nc3nc(-c4ccncc4)nc4cnccc34)CN2)CN1 [Example 40, methyl (2S,4S)-4-[(2S,4S)-4-{[2-(pyridin-4-yl)-pyrido[3,4-d]-pyrimidin-4-yl]-amino}pyrrolidine-2-amido]pyrrolidine-2-carboxylate]
3 | 10000 to 40000 | Oc1nc(-c2ccnc(Nc3cccc(CN4CCNCC4)c3)c2)nc2cnccc12 [Example 498, 2-[2-(3-piperazin-1-ylmethyl-phenylamino)-pyridin-4-yl]-pyrido[3,4-d]pyrimidin-4-ol]
4 | 100 to 1000 | COc1cncc2nc(-c3ccnc(Nc4ccccc4)c3)nc(N3CCN[C@@H](C4CC4)C3)c12 [Example 236]
5 | < 100 | Fc1cccc(F)c1Nc1cc(-c2nc(NC3CCNC3)c3c(C4CC4)cncc3n2)ccn1 (centres unmarked) [Example 837, {5-Cyclopropyl-2-[2-(2,6-difluoro-phenylamino)-pyridin-4-yl]-pyrido[3,4-d]pyrimidin-4-yl}-pyrrolidin-3-yl-amine]
6 | 100 to 1000 | c1ccc(COCc2cncc3nc(-c4ccncc4)nc(N4CCNCC4)c23)cc1 [Example 140, 1-{5-[(benzyloxy)methyl]-2-(pyridin-4-yl)pyrido[3,4-d]pyrimidin-4-yl}piperazine]
7 | 1000 to 10000 | O=C(Cc1ccccc1)Nc1cc(-c2nc(N[C@@H]3CCNC3)c3ccncc3n2)ccn1 [Example 334, 2-Phenyl-N-{4-[4-((R)-pyrrolidin-3-ylamino)-pyrido[3,4-d]pyrimidin-2-yl]-pyridin-2-yl}-acetamide]

More lines, now with the values behind:

Row | Compound | IC50 [nM]
8 | CN1CCN(c2nc(-c3ccnc(Nc4cccc(N5CCC(O)CC5)c4)c3)nc3cncc(C4CC4)c23)CC1 [Example 728, 1-(3-{4-[5-Cyclopropyl-4-(4-methyl-piperazin-1-yl)-pyrido[3,4-d]pyrimidin-2-yl]-pyridin-2-ylamino}-phenyl)-piperidin-4-ol] | 100 to 1000
9 | COc1cncc2nc(-c3ccnc(Nc4ccc(C(F)(F)F)nc4)c3)nc(N3CCNCC3)c12 [Example 395, [4-(5-Methoxy-4-piperazin-1-yl-pyrido[3,4-d]pyrimidin-2-yl)-pyridin-2-yl]-(6-trifluoromethyl-pyridin-3-yl)-amine] | 100 to 1000
10 | COc1cncc2nc(-c3ccnc(Nc4c(F)cccc4F)c3)nc(N3CCN[C@@H](CO)C3)c12 [Example 442, ((R)-4-{2-[2-(2,6-Difluoro-phenylamino)-pyridin-4-yl]-5-methoxy-pyrido[3,4-d]pyrimidin-4-yl}-piperazin-2-yl)-methanol] | < 100
11 | Fc1ccc(-c2cc3c(-c4nc(N5CCNCC5)c5c(C6CC6)cncc5n4)ccnc3[nH]2)cc1 [Example 1230, 5-Cyclopropyl-2-[2-(4-fluoro-phenyl)-1H-pyrrolo[2,3-b]pyridin-4-yl]-4-piperazin-1-yl-pyrido[3,4-d]pyrimidine] | < 100
12 | CC(=O)Nc1cc(-c2nc(N3CCN[C@@H](CS(C)(=O)=O)C3)c3c(C4CC4)cncc3n2)ccn1 [Example 770, N-{4-[5-Cyclopropyl-4-((R)-3-methanesulfonyl-methyl-piperazin-1-yl)-pyrido[3,4-d]pyrimidin-2-yl]-pyridin-2-yl}-acetamide] | 100 to 1000
13 | COc1cncc2nc(-c3ccnc(Nc4cc(C#N)ccn4)c3)nc(N3CCN(C)CC3)c12 [Example 397, 2-{4-[5-Methoxy-4-(4-methyl-piperazin-1-yl)-pyrido[3,4-d]pyrimidin-2-yl]-pyridin-2-ylamino}-isonicotinonitrile] | 100 to 1000
14 | Fc1cc(F)c(F)c(Nc2cc(-c3nc(NC4CCNCC4)c4c(C5CC5)cncc4n3)ccn2)n1 [Example 2062, {5-Cyclopropyl-2-[2-(3,4,6-trifluoro-pyridin-2-ylamino)-pyridin-4-yl]-pyrido[3,4-d]pyrimidin-4-yl}-piperidin-4-yl-amine] | < 100
